Measured values from patent publication US20240408167A1, “COMPOSITION FOR TREATING OCULAR DISEASES CONTAINING PEPTIDE” (Encuragen Inc., priority 2023, published 2024).
Values joined by “and” are separate entries in the source; they are usually repeats but may differ in a detail not shown here. Identical values can stand only once.

Key:
[1] = Osmotic pressure of trehalose-only formulations; assay type: physicochemical; settings: trehalose-only formulation
Protocol: (§1) The osmotic pressure of the trehalose-only formulations according to the (PEG)-BHD1028 content (see Table 5) and the osmotic pressure of the trehalose-mannitol composite formulations according to the (PEG)-BHD1028 content (see Table 6) were measured, and reflecting the experimental results, the osmolarity including the 0.5% (PEG)-BHD1028 concentration was adjusted to about 300 mOsm/kg.

[2] = Osmotic pressure of trehalose-mannitol composite formulations; assay type: physicochemical; settings: trehalose-mannitol composite formulation
Protocol: as §1

rabbit DED model = test: Tear film break-up time (TBUT), rabbit DED model; assay type: in vivo
From the text: The rabbit DED model was induced by locally administrating 0.1% benzalkoniumchloride (BAC) drops (Sigma, St. Louis, MO, USA) twice a day (8 a.m. and 4 p.m.). Before the BAC treatment, the control group (baseline, naive) underwent standard dry eye clinical tests such as the Schirmer tear test (STT), TBUT, and corneal staining score (CSS) test. […] The test substance was locally applied bis in die (BID) to both eyes.
TBUT is the time elapsed between the last blink and the first appearance of fluorescein decomposition, and it is an indicator of tear film stability. […] The measurement was repeated three times to obtain an average value.
Tear film instability is an important pathological characteristic of DED and the most common indicator of tear quality.

[3] = system: mouse experimental dry eye (EDE) model; test: Corneal fluorescein staining (CFS) score, EDE mouse model; assay type: in vivo
Protocol: To confirm the pharmacological effect and appropriate dosage, a pilot study was first conducted with the mice. In addition, a rabbit DED (Dry Eye Disease) model with a large exposed facial area was evaluated in comparison with a mouse model. In the mouse experimental dry eye (EDE) model, scopolamine hydrobromide (Sigma-Aldrich. St. Louis, MO, USA) was subcutaneously injected three times a day (9 a.m., 1:30 p.m., 6 p.m.) in a room exposed to ventilation with an ambient humidity of less than 40% at 25±2° C. to induce DED.
The mice were randomly divided into five groups: (1) EDE (experimental dry eye) control mice without eye drops administration, (2) EDE mice treated with a vehicle (phosphate-buffered saline), (3) EDE mice treated with 0.001% (PEG)-BHD1028 (4) EDE mice treated with 0.01% (PEG)-BHD1028, and (5) EDE mice treated with 0.1% (PEG)-BHD1028. All the treatment groups received 2 μL of eye drops three times a day.
The subjects were evaluated by corneal staining, and the abnormal findings of the eyelids, cornea, and conjunctiva were recorded. After dropping 1 μL of the 1% fluorescent dye solution and washing with saline solution, and the cornea was observed under a slit-lamp microscope and scored to evaluate the degree of epithelial damage (degree of fluorescent staining).
The clinical severity of the cornea was evaluated using a corneal fluorescein staining (CFS) method, which is widely used to detect foreign substances and corneal surface damage. A higher CFS score indicates more severe corneal epitheliopathy.

[4] = system: apoptotic cells in cornea and conjunctiva; test: Apoptotic cells by TUNEL, rabbit model; assay type: in vivo; settings: for cell death rate in the conjunctiva: Day 10; for percentage of apoptotic cells per unit area, cornea: after 10 days
Protocol: The eyes and appendages from each group were excised, fixed in the modified Davidson's solution, and embedded in paraffin, and the tissue sections were TUNEL-stained. In each section, the degree of apoptosis in the cornea and conjunctiva was measured using ZEN (Zeiss, Oberkochen, Germany) and Image J v1.51j8 (NIH, Bethesda, MD, USA) software programs.
The percentage of the apoptotic cells per unit area was evaluated after 10 days in the rabbit model. In the cornea, apoptotic cells were detected at a percentage of 35±6% in the normal control group and 74±2% in the vehicle group. In the 0.1%, 0.2%, and 0.4% (PEG)-BHD1028 treatment groups, the percentage was 40±12%, 39±3%, and 35±4%, respectively. […] In addition, the cell death rate in the conjunctiva was 7±5% in the normal control group and 56±4% in the vehicle group. The percentage in the 0.1%, 0.2% and 0.4% (PEG)-BHD1028 treatment groups was 35±4%, 26±3% and 19±4% on Day 10.

[5] = system: inflammatory cells infiltrated into the stromal layer; test: Immune cell counts by H&E staining, EDE rabbit model; assay type: in vivo; settings: 10 days after the treatment
From the text: The extracted eyes were washed with phosphate-buffered saline (PBS), fixed in the modified Davidson's solution, and embedded in paraffin (Histocore Arcadia, Leica, Wetzlar, Germany). Afterwards, paraffin blocks were sliced into sections of a ˜6 μm thickness, mounted on microscope slides (HistoCore AUTOCUT, Leica, Germany), air dried, and stained with hematoxylin-eosin. The stained tissue slides were imaged, and data were obtained using an optical microscope/digital slide scanner (Axio Scan.Z1, Zeiss, Oberkochen, Germany). Image measurement was performed using ZEN (Zeiss, Germany) and ImageJ (NIH, Bethesda, […], USA) software programs.
The DED inflammatory pathway also includes the infiltration of differentiated (antigen-specific) T cells into the cornea, conjunctiva, and lacrimal gland. To evaluate the anti-inflammatory effect of (PEG)-BHD1028 in the EDE rabbit model, the number of inflammatory cells infiltrated into the stromal layer was measured by H&E staining 10 days after the treatment.

With “NH2-Tyr-Tyr-Phe-Ala-Tyr-His-Pro-Asn-Ile-Pro-Gly-Leu-Tyr-Tyr-Phe-COOH (H-YYFAYHPNIPGLYYF-OH; also: PEGylated, site not given here (mPEG), acetate salt) [(PEG)-BHD1028]” the “osmotic pressure, Mean” value ([1]; 0.5%) was 300.33 mOsm/kg, the “osmotic pressure, single measurements #1-#3” value ([1]; 0.5%) was 299 mOsm/kg and 301 mOsm/kg and the “osmotic pressure, Mean” value ([1]; 1.5%) was 308.67 mOsm/kg. For the same substance, the “osmotic pressure, single measurements #1-#3” value ([1]; 1.5%) was 310 mOsm/kg and 309 mOsm/kg and 307 mOsm/kg, the “osmotic pressure, Mean” value ([1]; 4.5%) was 335.00 mOsm/kg and the “osmotic pressure, single measurements #1-#3” value ([1]; 4.5%) was 335 mOsm/kg. The “osmotic pressure, Mean” value ([2]; 0.5%) was 301.00 mOsm/kg, the “osmotic pressure, single measurements #1-#3” value ([2]; 0.5%) was 301 mOsm/kg and 399 mOsm/kg and 303 mOsm/kg and the “osmotic pressure, Mean” value ([2]; 1.5%) was 309.33 mOsm/kg. The “osmotic pressure, single measurements #1-#3” value ([2]; 1.5%) was 309 mOsm/kg and 312 mOsm/kg and 307 mOsm/kg, the “osmotic pressure, Mean” value ([2]; 4.5%) was 338.33 mOsm/kg and the “osmotic pressure, single measurements #1-#3” value ([2]; 4.5%) was 338 mOsm/kg and 339 mOsm/kg. For the same substance, the TBUT (rabbit DED model; rabbit DED, 0.1% BID, Day 5) was 10.64 ± 0.99 s, the TBUT (rabbit DED model; rabbit DED, 0.1% BID, Day 10) was 17.88 ± 1.91 s and the TBUT (rabbit DED model; rabbit DED, 0.2% BID, Day 5) was 15.68 ± 1.58 s. It also gave a TBUT (rabbit DED model; rabbit DED, 0.2% BID, Day 10) of 17.72 ± 1.74 s, a TBUT (rabbit DED model; rabbit DED, 0.4% BID, Day 5) of 19.88 ± 1.42 s and a TBUT (rabbit DED model; rabbit DED, 0.4% BID, Day 10) of 22.71 ± 1.87 s. For the same substance, the TBUT (rabbit DED model; rabbit, 0.1% group, Baseline (before BAC treatment)) was 49.67 ± 3.17 s, the TBUT (rabbit DED model; rabbit, 0.1% group, Day 0 (EDE), before treatment) was 8.50 ± 1.0 s and the TBUT (rabbit DED model; rabbit, 0.2% group, Baseline (before BAC treatment)) was 49.83 ± 2.10 s. For the same substance, the TBUT (rabbit DED model; rabbit, 0.2% group, Day 0 (EDE), before treatment) was 8.89 ± 1.34 s, the TBUT (rabbit DED model; rabbit, 0.4% group, Baseline (before BAC treatment)) was 53.00 ± 2.29 s and the TBUT (rabbit DED model; rabbit, 0.4% group, Day 0 (EDE), before treatment) was 8.22 ± 1.16 s. For the same substance, the CFS ([3]; 0.001%, Day 5) was 9.875 ± 1.808 score, the CFS ([3]; 0.001%, Day 10) was 11.000 ± 1.927 score and the CFS ([3]; 0.01%, Day 5) was 8.625 ± 1.598 score. For the same substance, the CFS ([3]; 0.01%, Day 10) was 7.625 ± 1.598 score, the CFS ([3]; 0.1%, Day 5) was 8.125 ± 1.553 score and the CFS ([3]; 0.1%, Day 10) was 8.375 ± 1.302 score. The “cell death rate in the conjunctiva” value ([4]; 0.1%) was 35±4%, the “percentage of apoptotic cells per unit area, cornea” value (from here on “percentage … per unit area, cornea”) ([4]; 0.1%) was 40±12% and the “cell death rate in the conjunctiva” value ([4]; 0.2%) was 26±3%. The “percentage … per unit area, cornea” value ([4]; 0.2%) was 39±3%, the “cell death rate in the conjunctiva” value ([4]; 0.4%) was 19±4% and the “percentage … per unit area, cornea” value ([4]; 0.4%) was 35±4%. For the same substance, the “immune cell counts in the corneal stroma” value ([5]; 0.1%) was 399.39±22.22, the “number of immune cells infiltrated into the conjunctiva” value (“number” for short) ([5]; 0.1%) was 624.94±29.29 and the “immune cell counts in the corneal stroma” value ([5]; 0.2%) was 349.89±17.18. For the same substance, the “number” value ([5]; 0.2%) was 472.41±39.06, the “immune cell counts in the corneal stroma” value ([5]; 0.4%) was 305.06±13.88 and the “number” value ([5]; 0.4%) was 427.22±29.29.
